Source: publication PMC9024805, “Non-Effective Improvement of Absorption for Some Nanoparticle Formulations Explained by Permeability under Non-Sink Conditions” (Pharmaceutics, 2022)

Tests used:
[1] = set-up: method as in PMID 17694546; conditions: cited from earlier work
[2] = Solubility from concentrations in the donor chambers; conditions: pH 6.5, 37 °C
Description: At 0, 30, 60, 120, 240 and 360 min, 100 μL of the acceptor chamber solution was withdrawn and diluted 2-fold. […] To measure the exact concentration in the donor chamber containing the nanosuspensions, the filtration method was applied according to a previous report [32]. Then, 100 μL of the filtered solution was diluted 2-fold. The sample concentration was determined by ultra-high-performance liquid chromatography (UHPLC).

[3] = Permeability under sink conditions (previous study / calculated for Figure 11); type: in vitro ADME; conditions: not told, given in Figure 11
Text: To assess the impact of permeability under non-sink conditions, we compared it with that under sink conditions.

[4] = set-up: method as in PMID 33801447; conditions: previous study ref 25; cited from earlier work

Effect of nanonization / particle size on solubility [2]	Papp [3]	SMILES	Papp using PAMPA relative to that of griseofulvin [1]	Papp under sink conditions [4]
		CC(=O)[C@H]1CC[C@H]2[C@@H]3CCC4=CC(=O)CC[C@]4(C)[C@H]3CC[C@]12C [progesterone]	2–3 times	
not improved by nanonization	2500 nm/s	COC1=CC(=O)C[C@@H](C)[C@]12Oc1c(Cl)c(OC)cc(OC)c1C2=O [griseofulvin]		2470 nm/s
